System: DFP-induced status epilepticus
Conditions: rat, in vivo

## Cc1ncc2n1-c1ccc(Cl)cc1C(c1ccccc1F)=NC2 [Midazolam, midazolam]
  effect on behavioral seizure scores induced by DFP: in-effective in reducing the behavioral seizure scores
  mortality: no mortality

## CCCC(CCC)C(=O)[O-].[Na+] [sodium valproate]
  termination of status epilepticus / EEG epileptiform activity: intermittent spikes and seizure activity during the whole 5 h of EEG recording

Reference: patent US20200030304A1 (priority 2017, published 2020)
